Assay results published in US20080207632A1, “PROTEIN KINASE INHIBITORS” (SUPERGEN, INC., priority 2006, published 2008).
Where two headings read alike, the source gives them in different places.

Molecular target: T1, aurora-2 kinase (Homo sapiens, UniProt O14965)
T1 construct: purchased Upstate, Lake Placid, N.Y; host or cells: sf9 cells
T1 sequence (O14965 1-403): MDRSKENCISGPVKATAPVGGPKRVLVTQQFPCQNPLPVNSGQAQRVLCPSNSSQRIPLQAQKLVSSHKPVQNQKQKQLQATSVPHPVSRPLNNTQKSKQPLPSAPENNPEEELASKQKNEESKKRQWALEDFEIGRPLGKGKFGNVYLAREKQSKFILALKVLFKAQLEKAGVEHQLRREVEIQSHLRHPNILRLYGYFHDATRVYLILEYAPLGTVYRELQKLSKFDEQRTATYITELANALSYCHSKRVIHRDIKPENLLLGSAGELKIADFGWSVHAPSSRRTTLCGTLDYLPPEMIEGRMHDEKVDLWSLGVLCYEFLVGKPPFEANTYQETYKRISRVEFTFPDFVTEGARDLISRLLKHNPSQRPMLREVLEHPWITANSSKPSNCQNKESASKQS
Experiment: aurora-2 kinase inhibition assay (Kinase-Glo, ATP remaining)
Assay type: biochemical
Protocol: (§1) In this assay kinase activity was determined by quantifying the amount of ATP remaining in solution following a kinase reaction by measuring the light units (LU) produced by luciferase using a luminometer. Percent inhibition was determined for individual compounds by comparing luminometer readings of drug-treated reactions to controls containing no drug (DMSO control) and no Aurora-2 enzyme (ATP control) in the following equation: […]
(§2) In a 50 μl reaction, recombinant aurora-2 kinase produced in sf9 cells (Upstate, Lake Placid, N.Y.) was incubated at 30° C. for two hours with 62.5 μM Kemptide (Calbiochem, San Diego, Calif.), 3 μM ATP (Invitrogen, Carlsbad, Calif.) and kinase reaction buffer (40 mM Tris-HCl, 10 mM MgCl2 and 0.1 μg/μl bovine serum albumin (BSA)). This reaction was carried out in the presence of drug substances, which had been previously diluted to desired concentrations in DMSO. After incubation, 50 μl of Kinase-Glo® (Promega, Inc., Madison, Wis.) solution was added to each reaction mixture and allowed to equilibrate for 10 minutes at room temperature. Kinase-Glo solution contains luciferase enzyme and luciferin, which react with ATP to produce light. Kinase activity is determined by quantifying the amount of ATP remaining in solution following the kinase reaction by measuring the light units (LU) produced by luciferase using a luminometer (Thermo-Electron, Vantaa, Finland).
as §1, with “Briefly,” for “In this assay”
as §2, with “μg/Il” for “μg/μl”
as §1, with “Illustrative compounds 2-3, 2-5, 2-7, 2-4 and 2-9 were evaluated in an aurora-2 kinase inhibition assay. In” for “In”

[1] = Example 17, 3 μM ATP, read-out: IC50 (drug concentration at which 50% of aurora-2 kinase activity was inhibited)
[2] = Example 20, unit from the table's spanning head, read-out: IC50 A2K
[3] = Example 54, Table 8, 3 μM ATP, read-out: Aurora-2 Inhibition, IC50

| SMILES | IC50 [1] [nM] | IC50 [2] [nM] | IC50 [3] [nM] |
| --- | --- | --- | --- |
| CC(=O)NS(=O)(=O)c1ccc(NC(=S)N2CCN(c3ncnc4[nH]c5cc(C(F)(F)F)c(Cl)cc5c34)CC2)cc1 [Compound 1-1, 4-(6-Chloro-7-trifluoromethyl-9H-pyrimido[4,5-b]indol-4-yl)-piperazine-1-carbothioic acid (4-acetylsulfamoyl-phenyl)-amide] | 49 |  |  |
| COc1cc2[nH]c3ncnc(N4CCN(C(=S)Nc5ccc(S(=O)(=O)NC(C)=O)cc5)CC4)c3c2cc1OC [Compound 1-2, 4-(6,7-Dimethoxy-9H-pyrimido[4,5-b]indol-4-yl)-piperazine-1-carbothioic acid (4-acetylsulfamoyl-phenyl)-amide] | < 5 | ≤ 5 |  |
| CC(=O)NS(=O)(=O)c1ccc(NC(=S)N2CCN(c3ncnc4[nH]c5ccc(Cl)cc5c34)CC2)cc1 [Compound 1-3, 4-(6-chloro-9H-pyrimido[4,5-b]indol-4-yl)-piperazine-1-carbothioic acid (4-acetylsulfamoyl-phenyl)-amide] |  | 74 |  |
| CC(=O)NS(=O)(=O)c1ccc(NC(=S)N2CCN(c3ncnc4[nH]c5cc(F)ccc5c34)CC2)cc1 [Compound 1-4] |  | 23 |  |
| COc1cc2c(cc1O)[nH]c1ncnc(N3CCN(C(=S)Nc4ccc(S(=O)(=O)NC(C)=O)cc4)CC3)c12 [Compound 1-8] |  | 18 |  |
| COc1cc2[nH]c3ncnc(N4CCN(C(=S)Nc5ccc(S(=O)(=O)N6CCOCC6)cc5)CC4)c3c2cc1OC [Compound 1-26] |  | 317 |  |
| COc1cc2[nH]c3ncnc(N4CCN(C(=S)Nc5ccc(NC(=O)C6CC6)cc5)CC4)c3c2cc1OC [Compound 1-34] |  | 2090 |  |
| COc1cc2[nH]c3ncnc(N4CCN(C(=S)Nc5ccc(NC(C)=O)cc5)CC4)c3c2cc1OC [Compound 1-42] |  | 4970 |  |
| COc1cc2[nH]c3ncnc(N4CCN(C(=S)Nc5ccc(S(N)(=O)=O)cc5)CC4)c3c2cc1OC [Compound 1-107] |  | 586 |  |
| COc1cc2[nH]c3ncnc(N4CCN(C(=S)Nc5ccc(S(C)(=O)=O)cc5)CC4)c3c2cc1OC [Compound 1-115] |  | 743 |  |
| COc1cc2[nH]c3ncnc(N4CCN(C(=S)Nc5ccc(S(=O)(=O)Nc6ccc(F)cc6)cc5)CC4)c3c2cc1OC [Compound 2-3, 4-(6,7-dimethoxy-9H-pyrimido[4,5-b]indol-4-yl)-N-(4-(N-(4-fluorophenyl)sulfamoyl)phenyl)piperazine-1-carbothioamide] |  |  | 110 |
| COc1ccc2c(c1)[nH]c1ncnc(N3CCN(C(=S)Nc4ccc(S(=O)(=O)Nc5ccc(F)cc5)cc4)CC3)c12 [Compound 2-5, 4-(7-methoxy-9H-pyrimido[4,5-b]indol-4-yl)-N-(4-(N-(4-fluorophenyl)sulfamoyl)phenyl)piperazine-1-carbothioamide] |  |  | 569 |
| Cc1ccc(NS(=O)(=O)c2ccc(NC(=S)N3CCN(c4ncnc5[nH]c6cc(Cl)c(N7CCOCC7)cc6c45)CC3)cc2)cc1 [Compound 2-9, 4-(7-chloro-6-morpholino-9H-pyrimido[4,5-b]indol-4-yl)-N-(4-(N-tolylsulfamoyl)phenyl)piperazine-1-carbothioamide] |  |  | 837 |
